Laboratory results: article PMC6688997 (Nature Communications, 2019)
Like-named read-outs stand apart in the source and are kept apart here.

Key:
TBK1 = molecular target: T1, TBK1 (Homo sapiens, UniProt Q9UHD2); experiment: Kinase assay, ATP Km; type: biochemical
T1 construct: purchased Carna Biosciences

RSK4 = molecular target: T2, RSK4 (Homo sapiens, UniProt Q9UK32); experiment: Kinase assay, ATP Km; type: biochemical
T2 construct: purchased Carna Biosciences

PLK3 = molecular target: T3, PLK3 (Homo sapiens, UniProt Q9H4B4); experiment: Kinase assay, ATP Km; type: biochemical
T3 construct: purchased Carna Biosciences

CDK9/CycT1 = CDK9/CycT1 (Homo sapiens, UniProt P50750); experiment: Kinase assay, ATP Km; type: biochemical
Chain of CDK9/CycT1 (P50750 whole entry): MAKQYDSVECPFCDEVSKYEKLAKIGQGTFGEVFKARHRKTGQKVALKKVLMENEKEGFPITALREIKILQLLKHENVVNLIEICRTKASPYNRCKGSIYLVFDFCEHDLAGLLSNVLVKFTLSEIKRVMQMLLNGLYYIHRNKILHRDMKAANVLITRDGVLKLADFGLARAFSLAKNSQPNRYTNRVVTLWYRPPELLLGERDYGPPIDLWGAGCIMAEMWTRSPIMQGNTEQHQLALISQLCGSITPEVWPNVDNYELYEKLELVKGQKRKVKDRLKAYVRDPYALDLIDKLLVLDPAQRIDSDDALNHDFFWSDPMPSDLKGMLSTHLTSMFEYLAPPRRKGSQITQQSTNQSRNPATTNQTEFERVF
Chain of CDK9/CycT1 (O60563 whole entry partner): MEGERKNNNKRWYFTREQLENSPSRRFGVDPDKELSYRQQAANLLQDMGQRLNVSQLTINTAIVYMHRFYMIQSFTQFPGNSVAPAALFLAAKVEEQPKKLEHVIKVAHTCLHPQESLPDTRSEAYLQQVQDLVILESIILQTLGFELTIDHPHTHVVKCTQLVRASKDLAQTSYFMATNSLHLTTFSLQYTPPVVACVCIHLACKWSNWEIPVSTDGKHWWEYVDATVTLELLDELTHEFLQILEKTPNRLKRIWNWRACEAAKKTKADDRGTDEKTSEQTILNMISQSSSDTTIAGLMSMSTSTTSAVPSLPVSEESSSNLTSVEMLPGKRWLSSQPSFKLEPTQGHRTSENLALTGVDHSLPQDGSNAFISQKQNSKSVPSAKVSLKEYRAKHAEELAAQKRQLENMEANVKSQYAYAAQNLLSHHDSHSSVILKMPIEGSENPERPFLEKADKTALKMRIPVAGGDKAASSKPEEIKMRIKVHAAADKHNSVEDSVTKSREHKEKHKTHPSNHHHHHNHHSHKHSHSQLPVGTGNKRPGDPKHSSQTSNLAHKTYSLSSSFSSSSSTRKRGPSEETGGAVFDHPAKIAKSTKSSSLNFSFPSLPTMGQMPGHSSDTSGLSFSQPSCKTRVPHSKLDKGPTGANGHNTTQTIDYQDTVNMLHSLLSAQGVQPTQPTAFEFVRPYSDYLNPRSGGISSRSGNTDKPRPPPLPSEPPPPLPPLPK

DYRK2 = DYRK2 (Homo sapiens, UniProt Q92630); experiment: Kinase assay, ATP Km; type: biochemical
Chain of DYRK2 (Q92630 whole entry): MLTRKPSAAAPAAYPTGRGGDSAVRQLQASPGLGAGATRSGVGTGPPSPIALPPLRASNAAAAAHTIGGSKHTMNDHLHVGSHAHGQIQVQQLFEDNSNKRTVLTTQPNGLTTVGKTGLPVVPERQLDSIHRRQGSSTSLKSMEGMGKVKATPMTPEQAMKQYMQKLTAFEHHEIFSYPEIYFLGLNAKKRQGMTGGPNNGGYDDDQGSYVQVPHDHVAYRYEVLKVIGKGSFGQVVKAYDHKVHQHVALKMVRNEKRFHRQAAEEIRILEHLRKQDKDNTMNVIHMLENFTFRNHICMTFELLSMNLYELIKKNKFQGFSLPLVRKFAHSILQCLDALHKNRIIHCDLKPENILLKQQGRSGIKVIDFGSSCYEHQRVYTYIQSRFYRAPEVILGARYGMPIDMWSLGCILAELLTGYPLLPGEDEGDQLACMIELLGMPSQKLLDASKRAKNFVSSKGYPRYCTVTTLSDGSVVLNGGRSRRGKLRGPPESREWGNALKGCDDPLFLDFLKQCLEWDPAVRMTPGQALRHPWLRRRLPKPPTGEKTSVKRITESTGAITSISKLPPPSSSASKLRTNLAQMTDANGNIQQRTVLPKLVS

[1] = tested on: LMNA-NTRK1 induced Ba/F3 cells; experiment: CellTiter-Glo cell viability assay; type: cell-based, murine; details: Mus musculus, BaF3, 72 h; read-out: IC50
Protocol: All media were supplemented with 100 U/ml penicillin, and 100 µg/ml streptomycin. All cells were routinely tested and verified to be free of mycoplasma contamination.
To assess cell viability after 72-h drug treatment, 2000–5000 cells were plated in replicates of three to six in 96-well plates. Following the drug treatments, the cells were incubated with CellTiter-Glo assay reagent (Promega, Madison, WI, USA) for 10 min. […] GraphPad Prism version 7.0 (GraphPad Software, La Jolla, CA, USA) was used to graphically display the data. IC50 values were determined using a nonlinear regression model with a sigmoidal dose response in GraphPad.

ABL = ABL (Homo sapiens, UniProt P00519); experiment: Kinase assay, ATP Km; type: biochemical
BMX = molecular target: T4, BMX (Homo sapiens, UniProt P51813); experiment: Kinase assay, ATP Km; type: biochemical
T4 construct: purchased Carna Biosciences
T4 sequence (P51813 whole entry): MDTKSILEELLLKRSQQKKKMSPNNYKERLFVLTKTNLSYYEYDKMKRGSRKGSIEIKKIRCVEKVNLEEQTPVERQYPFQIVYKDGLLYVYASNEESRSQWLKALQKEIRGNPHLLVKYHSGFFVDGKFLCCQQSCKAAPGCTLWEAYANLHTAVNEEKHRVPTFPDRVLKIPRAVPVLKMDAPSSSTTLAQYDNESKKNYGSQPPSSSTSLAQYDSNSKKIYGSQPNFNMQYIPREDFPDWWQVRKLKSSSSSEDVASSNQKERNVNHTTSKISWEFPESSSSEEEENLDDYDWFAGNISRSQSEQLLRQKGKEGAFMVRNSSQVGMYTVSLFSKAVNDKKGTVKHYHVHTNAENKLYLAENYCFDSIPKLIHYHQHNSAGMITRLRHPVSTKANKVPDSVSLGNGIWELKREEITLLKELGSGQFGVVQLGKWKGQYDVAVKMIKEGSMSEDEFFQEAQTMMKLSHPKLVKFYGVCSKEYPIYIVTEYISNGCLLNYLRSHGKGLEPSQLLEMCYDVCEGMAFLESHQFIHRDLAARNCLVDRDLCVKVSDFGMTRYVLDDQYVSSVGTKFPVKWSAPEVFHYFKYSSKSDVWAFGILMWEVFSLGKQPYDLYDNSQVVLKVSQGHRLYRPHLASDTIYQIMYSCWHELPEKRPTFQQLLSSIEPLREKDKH

CaMK2β = CaMK2β (Homo sapiens, UniProt Q13554); experiment: Kinase assay, ATP Km; type: biochemical
JAK3 = molecular target: T5, JAK3 (Homo sapiens, UniProt P52333); experiment: Kinase assay, ATP Km; type: biochemical
T5 construct: purchased Carna Biosciences

PKCγ = PKCγ (Homo sapiens, UniProt P05129); experiment: Kinase assay, ATP Km; type: biochemical
[2] = tested on: KM12 xenograft (TPM3-NTRK1); type: in vivo, mouse; details: for Tumor volume (average / SE): KM12 xenograft
FGFR4 = FGFR4 (Homo sapiens, UniProt P22455); experiment: Kinase assay, ATP Km; type: biochemical
Chain of FGFR4 (P22455 22-802): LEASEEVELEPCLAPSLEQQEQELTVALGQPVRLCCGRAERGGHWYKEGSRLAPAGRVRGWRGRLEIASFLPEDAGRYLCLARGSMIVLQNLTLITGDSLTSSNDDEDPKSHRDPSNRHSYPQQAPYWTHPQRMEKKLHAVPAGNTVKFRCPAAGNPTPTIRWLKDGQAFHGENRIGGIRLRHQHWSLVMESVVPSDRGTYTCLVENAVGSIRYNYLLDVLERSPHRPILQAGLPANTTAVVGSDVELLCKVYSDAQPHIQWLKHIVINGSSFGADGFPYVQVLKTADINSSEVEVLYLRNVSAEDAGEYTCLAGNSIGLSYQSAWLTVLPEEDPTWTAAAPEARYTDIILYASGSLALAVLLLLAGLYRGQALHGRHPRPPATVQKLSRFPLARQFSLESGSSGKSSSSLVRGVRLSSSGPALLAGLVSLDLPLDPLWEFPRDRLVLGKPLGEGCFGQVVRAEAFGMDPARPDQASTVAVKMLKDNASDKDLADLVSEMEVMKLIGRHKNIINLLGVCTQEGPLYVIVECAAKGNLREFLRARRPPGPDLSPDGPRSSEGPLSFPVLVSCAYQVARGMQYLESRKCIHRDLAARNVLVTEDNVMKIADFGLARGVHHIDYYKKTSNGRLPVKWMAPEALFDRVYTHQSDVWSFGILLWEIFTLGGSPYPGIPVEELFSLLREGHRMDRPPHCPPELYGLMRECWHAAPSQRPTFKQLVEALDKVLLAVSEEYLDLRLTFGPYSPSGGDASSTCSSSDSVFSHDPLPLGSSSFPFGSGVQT

CK1γ1 = CK1γ1 (Homo sapiens, UniProt Q9HCP0); experiment: Kinase assay, ATP Km; type: biochemical
Chain of CK1γ1 (Q9HCP0 whole entry): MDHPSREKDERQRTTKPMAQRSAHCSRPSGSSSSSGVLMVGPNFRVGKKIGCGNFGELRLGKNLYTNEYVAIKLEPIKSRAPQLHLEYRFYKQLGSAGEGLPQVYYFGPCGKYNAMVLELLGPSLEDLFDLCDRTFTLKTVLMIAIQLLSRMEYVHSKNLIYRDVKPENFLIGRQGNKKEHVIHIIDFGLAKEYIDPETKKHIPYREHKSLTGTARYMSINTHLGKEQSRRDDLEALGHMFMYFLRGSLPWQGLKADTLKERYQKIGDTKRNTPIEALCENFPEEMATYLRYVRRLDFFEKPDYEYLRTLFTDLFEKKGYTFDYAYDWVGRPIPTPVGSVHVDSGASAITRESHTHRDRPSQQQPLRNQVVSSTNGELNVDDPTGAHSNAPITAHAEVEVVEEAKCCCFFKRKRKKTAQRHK

[3] = for Body Weight Change(%) (average / SD): N 6
SRPK1 = molecular target: T6, SRPK1 (Homo sapiens, UniProt Q96SB4); experiment: Kinase assay, ATP Km; type: biochemical
T6 construct: purchased Carna Biosciences
T6 sequence (Q96SB4 whole entry): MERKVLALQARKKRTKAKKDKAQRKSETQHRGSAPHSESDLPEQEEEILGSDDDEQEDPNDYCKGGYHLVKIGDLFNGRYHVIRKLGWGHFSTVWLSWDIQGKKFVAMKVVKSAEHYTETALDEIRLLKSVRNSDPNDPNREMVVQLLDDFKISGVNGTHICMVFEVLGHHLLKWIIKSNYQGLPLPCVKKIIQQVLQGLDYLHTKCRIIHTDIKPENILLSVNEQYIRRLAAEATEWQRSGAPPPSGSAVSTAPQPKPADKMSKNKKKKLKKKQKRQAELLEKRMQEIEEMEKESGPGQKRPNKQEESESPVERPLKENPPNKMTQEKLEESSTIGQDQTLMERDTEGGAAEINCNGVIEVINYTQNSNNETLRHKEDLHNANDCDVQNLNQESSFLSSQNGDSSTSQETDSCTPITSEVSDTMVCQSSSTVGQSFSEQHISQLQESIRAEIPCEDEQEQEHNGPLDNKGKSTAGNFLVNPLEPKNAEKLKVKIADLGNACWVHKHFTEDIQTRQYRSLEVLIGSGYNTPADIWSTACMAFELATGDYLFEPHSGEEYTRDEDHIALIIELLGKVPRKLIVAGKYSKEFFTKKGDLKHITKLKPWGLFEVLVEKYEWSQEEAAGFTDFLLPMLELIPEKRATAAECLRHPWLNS

[4] = PK profile, plasma concentration by LC-MS/MS; type: in vivo, nude mice; details: single administration of 100 mg/kg
Protocol: PK profile of DS-6051b as a free base in nude mice The indicated dose of DS-6051b as a free base was administered to nude mice. Blood samples were collected at 2, 6 and 24 h post-dosing and centrifuged to separate the supernatant as plasma. […] Results are indicated as mean ± SD of the concentration of each group (N = 3).

TSSK1 = molecular target: T7, TSSK1 (Homo sapiens, UniProt Q9BXA7); experiment: Kinase assay, ATP Km; type: biochemical
T7 construct: purchased Carna Biosciences

CaMK2γ = CaMK2γ (Homo sapiens, UniProt Q13555); experiment: Kinase assay, ATP Km; type: biochemical
[5] = tested on: Ba/F3 TPM3-NTRK1 F646I cells; experiment: CellTiter-Glo cell viability assay; type: cell-based, murine; details: Mus musculus, BaF3, 72 h
IKKε = molecular target: T8, IKKε (Homo sapiens, UniProt Q14164); experiment: Kinase assay, ATP Km; type: biochemical
T8 construct: purchased Carna Biosciences
T8 sequence (Q14164 whole entry): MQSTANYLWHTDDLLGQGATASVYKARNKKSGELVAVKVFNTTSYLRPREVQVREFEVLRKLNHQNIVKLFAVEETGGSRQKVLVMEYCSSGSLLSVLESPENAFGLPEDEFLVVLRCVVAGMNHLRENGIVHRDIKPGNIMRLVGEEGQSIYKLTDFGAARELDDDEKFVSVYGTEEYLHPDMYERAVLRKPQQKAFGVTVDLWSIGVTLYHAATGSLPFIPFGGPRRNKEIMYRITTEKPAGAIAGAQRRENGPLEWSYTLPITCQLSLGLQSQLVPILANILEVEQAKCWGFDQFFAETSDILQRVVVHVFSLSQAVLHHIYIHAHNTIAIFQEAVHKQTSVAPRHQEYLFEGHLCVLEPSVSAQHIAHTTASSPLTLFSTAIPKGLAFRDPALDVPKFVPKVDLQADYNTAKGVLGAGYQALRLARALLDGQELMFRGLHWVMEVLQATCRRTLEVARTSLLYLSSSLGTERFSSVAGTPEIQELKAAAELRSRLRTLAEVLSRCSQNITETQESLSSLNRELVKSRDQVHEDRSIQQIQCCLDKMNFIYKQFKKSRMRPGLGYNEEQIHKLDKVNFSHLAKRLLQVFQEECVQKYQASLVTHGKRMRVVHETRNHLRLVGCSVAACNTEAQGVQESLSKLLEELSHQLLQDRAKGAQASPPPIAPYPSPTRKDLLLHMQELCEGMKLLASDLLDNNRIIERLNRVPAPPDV

Ba/F3-ETV6-NTRK3 cells = experiment: CellTiter-Glo cell viability assay; type: cell-based, murine; details: Mus musculus; source data sheet
Protocol: All media were supplemented with 100 U/ml penicillin, and 100 µg/ml streptomycin. All cells were routinely tested and verified to be free of mycoplasma contamination. […] To assess cell viability after 72-h drug treatment, 2000–5000 cells were plated in replicates of three to six in 96-well plates. Following the drug treatments, the cells were incubated with CellTiter-Glo assay reagent (Promega, Madison, WI, USA) for 10 min. […] IC50 values were determined using a nonlinear regression model with a sigmoidal dose response in GraphPad.

Structure (SMILES): C[C@@H](N)COc1ccc(-c2cnc3ccc(N[C@H](C)c4cccc(F)c4)nn23)cc1.O=C(O)CCCCC(=O)O [DS-6051b]
- inhibition at 0.04 µM (TBK1): -2.4%
- inhibition at 0.04 µM (RSK4): 12.3%
- inhibition at 0.04 µM (PLK3): 0.177%
- inhibition at 0.04 µM (CDK9/CycT1): 8.5%
- inhibition at 0.04 µM (DYRK2): 5.3%
- IC50 [1]: 3.35 nM
- inhibition at 0.04 µM (ABL): 29.1%
- inhibition at 0.04 µM (BMX): 53%
- inhibition at 0.04 µM (CaMK2β): 1.7%
- inhibition at 0.04 µM (JAK3): 74.4%
- inhibition at 0.04 µM (PKCγ): 4.7%
- Tumor volume (average / SE) ([2]; 6.25 mg/kg, day 0): 172 mm3
- Tumor volume (average / SE) ([2]; 6.25 mg/kg, day 2): 226 mm3
- Tumor volume (average / SE) ([2]; 6.25 mg/kg, day 4): 383 mm3
- Tumor volume (average / SE) ([2]; 6.25 mg/kg, day 6): 637 mm3
- Tumor volume (average / SE) ([2]; 6.25 mg/kg, day 8): 1018 mm3
- Tumor volume (average / SE) ([2]; 25 mg/kg po, day 0): 171 mm3
- Tumor volume (average / SE) ([2]; 25 mg/kg po, day 2): 224 mm3
- Tumor volume (average / SE) ([2]; 25 mg/kg po, day 4): 329 mm3
- Tumor volume (average / SE) ([2]; 25 mg/kg po, day 6): 420 mm3
- Tumor volume (average / SE) ([2]; 25 mg/kg po, day 8): 661 mm3
- Tumor volume (average / SE) ([2]; 50 mg/kg po, day 0): 171 mm3
- Tumor volume (average / SE) ([2]; 50 mg/kg po, day 2): 211 mm3
- Tumor volume (average / SE) ([2]; 50 mg/kg po, day 4): 296 mm3
- Tumor volume (average / SE) ([2]; 50 mg/kg po, day 6): 268 mm3
- Tumor volume (average / SE) ([2]; 50 mg/kg po, day 8): 219 mm3
- Tumor volume (average / SE) ([2]; 100 mg/kg po, day 0): 171 mm3
- Tumor volume (average / SE) ([2]; 100 mg/kg po, day 2): 223 mm3
- Tumor volume (average / SE) ([2]; 100 mg/kg po, day 4): 239 mm3
- Tumor volume (average / SE) ([2]; 100 mg/kg po, day 6): 213 mm3
- Tumor volume (average / SE) ([2]; 100 mg/kg po, day 8): 161 mm3
- Tumor volume (average / SE) ([2]; 200 mg/kg po, day 0): 174 mm3
- Tumor volume (average / SE) ([2]; 200 mg/kg po, day 2): 220 mm3
- Tumor volume (average / SE) ([2]; 200 mg/kg po, day 4): 223 mm3
- Tumor volume (average / SE) ([2]; 200 mg/kg po, day 6): 207 mm3
- Tumor volume (average / SE) ([2]; 200 mg/kg po, day 8): 144 mm3
- Dose inducing tumor shrinkage ([2]; once daily oral gavage, 8 days): ≥ 50 mg/kg
- inhibition at 0.04 µM (FGFR4): 17%
- inhibition at 0.04 µM (CK1γ1): 2.4%
- Body Weight Change(%) (average / SD) ([3]; DS-6051b 3 mg/kg po, day 0, average): 0.0%
- Body Weight Change(%) (individual) ([3]; DS-6051b 3 mg/kg po, day 0, individual animals): 0.0%
- Body Weight Change(%) (average / SD) ([3]; DS-6051b 3 mg/kg po, day 1, average): -2.9%
- Body Weight Change(%) (individual) ([3]; DS-6051b 3 mg/kg po, day 1, individual animals): -3.6%
- Body Weight Change(%) (average / SD) ([3]; DS-6051b 3 mg/kg po, day 2, average): -1.9%
- Body Weight Change(%) (average / SD) ([3]; DS-6051b 3 mg/kg po, day 3, average): -2.1%
- Body Weight Change(%) (average / SD) ([3]; DS-6051b 3 mg/kg po, day 4, average): -0.9%
- Body Weight Change(%) (average / SD) ([3]; DS-6051b 10 mg/kg po, day 0, average): 0.0%
- Body Weight Change(%) (average / SD) ([3]; DS-6051b 10 mg/kg po, day 1, average): -1.6%
- Body Weight Change(%) (average / SD) ([3]; DS-6051b 10 mg/kg po, day 2, average): 0.2%
- Body Weight Change(%) (average / SD) ([3]; DS-6051b 10 mg/kg po, day 3, average): 0.6%
- Body Weight Change(%) (average / SD) ([3]; DS-6051b 10 mg/kg po, day 4, average): 0.9%
- Body Weight Change(%) (average / SD) ([3]; DS-6051b 30 mg/kg po, day 0, average): 0.0%
- Body Weight Change(%) (average / SD) ([3]; DS-6051b 30 mg/kg po, day 1, average): -2.1%
- Body Weight Change(%) (average / SD) ([3]; DS-6051b 30 mg/kg po, day 2, average): -1.9%
- Body Weight Change(%) (average / SD) ([3]; DS-6051b 30 mg/kg po, day 3, average): -2.2%
- Body Weight Change(%) (average / SD) ([3]; DS-6051b 30 mg/kg po, day 4, average): -1.7%
- Body Weight Change(%) (average / SD) ([3]; DS-6051b 100 mg/kg po, day 0, average): 0.0%
- Body Weight Change(%) (average / SD) ([3]; DS-6051b 100 mg/kg po, day 1, average): -2.6%
- Body Weight Change(%) (average / SD) ([3]; DS-6051b 100 mg/kg po, day 2, average): -2.5%
- Body Weight Change(%) (average / SD) ([3]; DS-6051b 100 mg/kg po, day 3, average): -3.0%
- Body Weight Change(%) (average / SD) ([3]; DS-6051b 100 mg/kg po, day 4, average): -2.4%
- Body weight loss ([3]; ≥30 mg/kg): without severe body weight loss
- inhibition at 0.04 µM (SRPK1): -0.0643%
- Peak plasma concentration [4]: around 1500 nM
- inhibition at 0.04 µM (TSSK1): 4.1%
- inhibition at 0.04 µM (CaMK2γ): 3.7%
- IC50 [5]: 25.6 nM
- inhibition at 0.04 µM (IKKε): -0.325%
- GI50 (Ba/F3-ETV6-NTRK3 cells): 7.8 nM
